Columns and labels:
[1] = tested on: OVCAR-3; assay: cells; conditions: Homo sapiens
[2] = tested on: HL-60(TB); assay: NCI-60 anticancer screen (SRB; single dose and five doses); conditions: Homo sapiens
[3] = tested on: K-562; assay: as above; conditions: Homo sapiens
[4] = tested on: SR; assay: as above; conditions: Homo sapiens
[5] = tested on: EKVX; assay: as above; conditions: Homo sapiens
[6] = tested on: HT29; assay: as above; conditions: Homo sapiens
[7] = tested on: KM12; assay: as above; conditions: Homo sapiens
[8] = tested on: SW-620; assay: as above; conditions: Homo sapiens
[9] = tested on: SF-268; assay: as above; conditions: Homo sapiens
[10] = tested on: SNB-75; assay: as above
[11] = tested on: U251; assay: as above; conditions: Homo sapiens
[12] = tested on: LOX IMVI; assay: as above; conditions: Homo sapiens
[13] = tested on: MDA-MB-435; assay: as above; conditions: Homo sapiens
[14] = tested on: SK-MEL-2; assay: as above; conditions: Homo sapiens
[15] = tested on: SK-MEL-5; assay: as above; conditions: Homo sapiens
[16] = tested on: UACC-257; assay: as above; conditions: Homo sapiens
[17] = tested on: UACC-62; assay: as above; conditions: Homo sapiens
[18] = tested on: IGROV1; assay: as above; conditions: Homo sapiens
[19] = tested on: OVCAR-4; assay: as above; conditions: Homo sapiens
[20] = tested on: OVCAR-5; assay: as above; conditions: Homo sapiens
[21] = tested on: 786-0; assay: as above; conditions: Homo sapiens
[22] = tested on: CAKI-1; assay: as above; conditions: Homo sapiens
[23] = tested on: SN12C; assay: as above; conditions: Homo sapiens
[24] = tested on: UO-31; assay: as above; conditions: Homo sapiens
[25] = tested on: DU-145; assay: as above; conditions: Homo sapiens
[26] = tested on: MCF7; assay: as above; conditions: Homo sapiens
[27] = tested on: MDA-MB-231/ATCC; assay: as above; conditions: Homo sapiens
[28] = tested on: HS 578T; assay: as above; conditions: Homo sapiens
[29] = tested on: T-47D; assay: as above; conditions: Homo sapiens, T47D
[30] = 48 h, read-out: Growth Percentage

## Cc1[nH]c(=S)sc1C(=O)/C=C/c1cccc([N+](=O)[O-])c1 [2h, (E)-1-(4-Methyl-2-Thioxo-2,3-Dihydrothiazol-5-yl)-3-(3-Nitrophenyl)Prop-2-En-1-One]
[1]; OVCAR-3
  GI50: 2.4 µM
[1]; OVCAR-3, 48 h, read-out: Growth Percentage
  activity at 10 µM: -79.5%
[1]; OVCAR-3, five-dose, Ovarian Cancer OVCAR-3
  IC50: 4.37 µM
[1]; OVCAR-3, read-out: LC50
  CC50: 24 µM
[1]; OVCAR-3, read-out: TGI
  IC (TGI): 6.46 µM
[2]; HL-60
  GI50: 1.95 µM
  IC50: 3.31 µM
[2]; HL-60, 48 h, read-out: Growth Percentage
  activity at 10 µM: 5.25%
[2]; HL-60, read-out: LC50
  CC50: > 100 µM
[2]; HL-60, read-out: TGI
  IC (TGI): 5.75 µM
[3]; K562
  GI50: 3.09 µM
  IC50: 3.72 µM
[3]; K562, 48 h, read-out: Growth Percentage
  activity at 10 µM: 13.8%
[3]; K562, read-out: LC50
  CC50: > 100 µM
[3]; K562, read-out: TGI
  IC (TGI): > 100 µM
[4]
  GI50: 2.75 µM
  IC50: 3.89 µM
[4]; [30]
  activity at 10 µM: -11%
[4]; read-out: LC50
  CC50: > 100 µM
[4]; read-out: TGI
  IC (TGI): > 100 µM
[5]
  GI50: 5.75 µM
  IC50: 15.1 µM
[5]; [30]
  activity at 10 µM: 0.65%
[5]; read-out: LC50
  CC50: 46.8 µM
[5]; read-out: TGI
  IC (TGI): 19.5 µM
[6]; HT-29
  GI50: 5.5 µM
  IC50: 7.24 µM
[6]; HT-29, 48 h, read-out: Growth Percentage
  activity at 10 µM: 20.4%
[6]; HT-29, read-out: LC50
  CC50: 60.3 µM
[6]; HT-29, read-out: TGI
  IC (TGI): 19.9 µM
[7]; KM12
  GI50: 3.63 µM
  IC50: 5.37 µM
[7]; KM12, 48 h, read-out: Growth Percentage
  activity at 10 µM: -78.4%
[7]; KM12, read-out: LC50
  CC50: 42.7 µM
[7]; KM12, read-out: TGI
  IC (TGI): 13.2 µM
[8]; SW-620
  GI50: 3.39 µM
  IC50: 4.07 µM
[8]; SW-620, 48 h, read-out: Growth Percentage
  activity at 10 µM: -37.8%
[8]; SW-620, read-out: LC50
  CC50: 45.7 µM
[8]; SW-620, read-out: TGI
  IC (TGI): 11 µM
[9]; SF-268
  GI50: 10.5 µM
  IC50: 19.1 µM
[9]; SF-268, 48 h, read-out: Growth Percentage
  activity at 10 µM: 27.5%
[9]; SF-268, read-out: LC50
  CC50: 57.5 µM
[9]; SF-268, read-out: TGI
  IC (TGI): 24.6 µM
[10]; Homo sapiens, SNB-75
  GI50: 2.29 µM
  IC50: 8.51 µM
[10]; Homo sapiens, SNB-75, read-out: LC50
  CC50: 27.5 µM
[10]; five-dose, CNS Cancer SNB-75
  TGI: 7.41 µM
[11]; U-251
  GI50: 1.74 µM
  IC50: 3.09 µM
[11]; U-251, 48 h, read-out: Growth Percentage
  activity at 10 µM: -76%
[11]; U-251, read-out: LC50
  CC50: 5.89 µM
[11]; U-251, read-out: TGI
  IC (TGI): 3.24 µM
[12]
  GI50: 1.58 µM
  IC50: 2.75 µM
[12]; [30]
  activity at 10 µM: -99%
[12]; read-out: LC50
  CC50: 6.03 µM
[12]; read-out: TGI
  IC (TGI): 3.09 µM
[13]; MDA-MB-435
  GI50: 4.57 µM
  IC50: 7.41 µM
[13]; MDA-MB-435, 48 h, read-out: Growth Percentage
  activity at 10 µM: -37%
[13]; MDA-MB-435, read-out: LC50
  CC50: 44.7 µM
[13]; MDA-MB-435, read-out: TGI
  IC (TGI): 17 µM
[14]; SK-MEL-2
  GI50: 12.6 µM
  IC50: 26.9 µM
[14]; SK-MEL-2, 48 h, read-out: Growth Percentage
  activity at 10 µM: 16.9%
[14]; SK-MEL-2, read-out: LC50
  CC50: 53.7 µM
[14]; SK-MEL-2, read-out: TGI
  IC (TGI): 26.3 µM
[15]; SK-MEL-5
  GI50: 13.2 µM
  IC50: 22.9 µM
[15]; SK-MEL-5, 48 h, read-out: Growth Percentage
  activity at 10 µM: -68.8%
[15]; SK-MEL-5, read-out: LC50
  CC50: 51.3 µM
[15]; SK-MEL-5, read-out: TGI
  IC (TGI): 26.3 µM
[16]; UACC-257
  GI50: 3.39 µM
  IC50: 10 µM
[16]; UACC-257, 48 h, read-out: Growth Percentage
  activity at 10 µM: 9.4%
[16]; UACC-257, read-out: LC50
  CC50: 38 µM
[16]; UACC-257, read-out: TGI
  IC (TGI): 13.5 µM
[17]; UACC-62
  GI50: 3.55 µM
  IC50: 7.94 µM
[17]; UACC-62, 48 h, read-out: Growth Percentage
  activity at 10 µM: -56.7%
[17]; UACC-62, read-out: LC50
  CC50: 41.7 µM
[17]; UACC-62, read-out: TGI
  IC (TGI): 15.8 µM
[18]; IGROV-1
  GI50: 3.02 µM
  IC50: 4.9 µM
[18]; IGROV-1, 48 h, read-out: Growth Percentage
  activity at 10 µM: 10.2%
[18]; IGROV-1, read-out: LC50
  CC50: 47.9 µM
[18]; IGROV-1, read-out: TGI
  IC (TGI): 12.3 µM
[19]; OVCAR-4
  GI50: 11 µM
  IC50: 20.4 µM
[19]; OVCAR-4, 48 h, read-out: Growth Percentage
  activity at 10 µM: 13.1%
[19]; OVCAR-4, read-out: LC50
  CC50: 51.3 µM
[19]; OVCAR-4, read-out: TGI
  IC (TGI): 24 µM
[20]; OVCAR-5
  GI50: 3.63 µM
  IC50: 9.12 µM
[20]; OVCAR-5, 48 h, read-out: Growth Percentage
  activity at 10 µM: -37.4%
[20]; OVCAR-5, read-out: LC50
  CC50: 38.9 µM
[20]; OVCAR-5, read-out: TGI
  IC (TGI): 13.8 µM
[21]; 786-0
  GI50: 3.98 µM
  IC50: 6.31 µM
[21]; 786-0, 48 h, read-out: Growth Percentage
  activity at 10 µM: -10.8%
[21]; 786-0, read-out: LC50
  CC50: 50.1 µM
[21]; 786-0, read-out: TGI
  IC (TGI): 15.8 µM
[22]; CAKI-1
  GI50: 10.5 µM
  IC50: 20.4 µM
[22]; CAKI-1, 48 h, read-out: Growth Percentage
  activity at 10 µM: -56.5%
[22]; CAKI-1, read-out: LC50
  CC50: 51.3 µM
[22]; CAKI-1, read-out: TGI
  IC (TGI): 22.9 µM
[23]
  GI50: 2.69 µM
  IC50: 4.37 µM
[23]; [30]
  activity at 10 µM: -25.6%
[23]; read-out: LC50
  CC50: 33.1 µM
[23]; read-out: TGI
  IC (TGI): 10.2 µM
[24]; UO-31
  GI50: 3.89 µM
  IC50: 10.7 µM
[24]; UO-31, 48 h, read-out: Growth Percentage
  activity at 10 µM: -89.6%
[24]; UO-31, read-out: LC50
  CC50: 43.6 µM
[24]; UO-31, read-out: TGI
  IC (TGI): 17 µM
[25]; DU-145
  GI50: 2.4 µM
  IC50: 3.89 µM
[25]; DU-145, 48 h, read-out: Growth Percentage
  activity at 10 µM: 8.55%
[25]; DU-145, read-out: LC50
  CC50: 23.4 µM
[25]; DU-145, read-out: TGI
  IC (TGI): 6.17 µM
[26]; MCF7
  GI50: 2.75 µM
  IC50: 6.31 µM
[26]; MCF7, 48 h, read-out: Growth Percentage
  activity at 10 µM: -45.4%
[26]; MCF7, read-out: LC50
  CC50: 38 µM
[26]; MCF7, read-out: TGI
  IC (TGI): 9.77 µM
[27]; MDA-MB-231
  GI50: 5.25 µM
  IC50: 16.2 µM
[27]; MDA-MB-231, 48 h, read-out: Growth Percentage
  activity at 10 µM: -17.6%
[27]; MDA-MB-231, read-out: LC50
  CC50: 44.7 µM
[27]; MDA-MB-231, read-out: TGI
  IC (TGI): 17.8 µM
[28]
  GI50: 17.4 µM
  IC50: 67.6 µM
[28]; [30]
  activity at 10 µM: 24.5%
[28]; read-out: LC50
  CC50: > 100 µM
[28]; read-out: TGI
  IC (TGI): 52.5 µM
[29]
  GI50: 2 µM
  IC50: 4.9 µM
[29]; [30]
  activity at 10 µM: -56.6%
[29]; read-out: LC50
  CC50: 66.1 µM
[29]; read-out: TGI
  IC (TGI): 7.08 µM

From PMC11435058, “Synthesis of New Thiazole-Privileged Chalcones as Tubulin Polymerization Inhibitors with Potential Anticancer Activities” (Pharmaceuticals, 2024)
